Reference: ChEMBL document CHEMBL1156499, “Tripeptides of RS1 (RSC1A1) inhibit a monosaccharide-dependent exocytotic pathway of Na+-D-glucose cotransporter SGLT1 with high affinity” (J Biol Chem, 2007)
Blank lines part the entries; values can stand above or below the molecule they belong to. Active and inactive are the calls of the source. The rule behind the calls is not given here. Peptide text beside a SMILES is read from it.

How the values were obtained:
[1] = target: T1, Sodium/glucose cotransporter 1 (Homo sapiens) (UniProt P13866); assay: Inhibition of human SGLT1 expressed in xenopus laevis oocyte assessed as inhibition of methyl-alpha-D-[14C]glucopyranoside uptake at 75 pmol after 1 hr relative to control; parameters: Activity: scale not given: the % may be the effect or the level left
T1 sequence (whole entry): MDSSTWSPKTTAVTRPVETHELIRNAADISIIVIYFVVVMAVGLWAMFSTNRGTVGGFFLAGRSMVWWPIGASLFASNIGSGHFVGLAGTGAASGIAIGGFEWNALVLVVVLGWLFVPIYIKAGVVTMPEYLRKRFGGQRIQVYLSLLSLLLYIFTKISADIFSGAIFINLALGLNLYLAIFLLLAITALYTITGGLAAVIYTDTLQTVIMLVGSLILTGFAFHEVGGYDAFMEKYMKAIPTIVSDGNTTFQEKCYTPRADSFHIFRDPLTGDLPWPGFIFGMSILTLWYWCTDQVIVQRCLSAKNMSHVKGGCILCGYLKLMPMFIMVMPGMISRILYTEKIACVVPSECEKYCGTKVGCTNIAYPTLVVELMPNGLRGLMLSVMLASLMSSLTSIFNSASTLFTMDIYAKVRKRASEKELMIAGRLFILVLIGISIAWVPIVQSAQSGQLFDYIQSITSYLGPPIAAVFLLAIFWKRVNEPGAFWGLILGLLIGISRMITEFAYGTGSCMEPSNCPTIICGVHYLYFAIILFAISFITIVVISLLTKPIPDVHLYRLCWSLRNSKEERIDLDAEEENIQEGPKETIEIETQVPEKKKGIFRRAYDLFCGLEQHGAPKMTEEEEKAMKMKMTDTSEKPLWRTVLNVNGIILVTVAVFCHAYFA

[2] = target: T2, Solute carrier family 15 member 1 (Homo sapiens) (UniProt P46059); assay: Activity of human PepT1 expressed in xenopus laevis oocyte assessed as induction of inward current at 5 mM
T2 sequence (whole entry): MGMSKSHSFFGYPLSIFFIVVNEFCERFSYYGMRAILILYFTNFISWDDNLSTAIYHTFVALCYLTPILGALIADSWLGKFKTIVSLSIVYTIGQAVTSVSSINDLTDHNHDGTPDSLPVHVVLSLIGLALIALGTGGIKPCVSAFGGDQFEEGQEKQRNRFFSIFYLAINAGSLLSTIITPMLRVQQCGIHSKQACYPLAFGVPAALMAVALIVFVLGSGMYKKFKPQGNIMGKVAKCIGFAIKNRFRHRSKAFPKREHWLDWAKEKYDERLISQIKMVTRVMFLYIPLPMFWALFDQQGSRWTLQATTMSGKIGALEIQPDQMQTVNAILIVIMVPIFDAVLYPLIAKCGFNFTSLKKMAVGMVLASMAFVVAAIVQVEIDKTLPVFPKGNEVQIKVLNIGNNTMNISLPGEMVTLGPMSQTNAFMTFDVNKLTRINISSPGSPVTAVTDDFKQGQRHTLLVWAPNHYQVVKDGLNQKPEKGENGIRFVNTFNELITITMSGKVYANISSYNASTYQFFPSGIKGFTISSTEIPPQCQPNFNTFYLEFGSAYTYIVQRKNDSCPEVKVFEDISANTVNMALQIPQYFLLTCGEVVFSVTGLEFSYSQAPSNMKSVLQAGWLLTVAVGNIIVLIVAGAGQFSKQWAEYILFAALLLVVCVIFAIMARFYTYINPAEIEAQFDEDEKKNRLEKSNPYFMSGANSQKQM

[3] = target: T1, Sodium/glucose cotransporter 1 (Homo sapiens); assay: Reversal of inhibition of human SGLT1 expressed in xenopus laevis oocyte assessed as inhibition of methyl-alpha-D-[14C]glucopyranoside uptake at 75 pmol after 1 hr in presence of D-glucose relative to control
[4] = target: T1, Sodium/glucose cotransporter 1 (Homo sapiens); assay: Reversal of inhibition of human SGLT1 expressed in xenopus laevis oocyte by measuring inhibition of methyl-alpha-D-[14C]glucopyranoside uptake after 1 hr assessed concentration required for 50% protective high affinity in presence of methyl-alpha-D-glucopyranoside relative to control
[5] = target: T1, Sodium/glucose cotransporter 1 (Homo sapiens); assay: Reversal of inhibition of human SGLT1 expressed in xenopus laevis oocyte by measuring inhibition of methyl-alpha-D-[14C]glucopyranoside uptake after 1 hr assessed concentration required for 50% protective high affinity in presence of 2-deoxyglucose relative to control
[6] = target: T1, Sodium/glucose cotransporter 1 (Homo sapiens); assay: Reversal of inhibition of human SGLT1 expressed in xenopus laevis oocyte assessed as inhibition of methyl-alpha-D-[14C]glucopyranoside uptake at 75 pmol after 1 hr in presence of D-fructose relative to control
[7] = target: T1, Sodium/glucose cotransporter 1 (Homo sapiens); assay: Reversal of inhibition of human SGLT1 expressed in xenopus laevis oocyte assessed as inhibition of methyl-alpha-D-[14C]glucopyranoside uptake at 75 pmol after 1 hr in presence of 2-deoxyglucose relative to control
[8] = target: T1, Sodium/glucose cotransporter 1 (Homo sapiens); assay: Reversal of inhibition of human SGLT1 expressed in xenopus laevis oocyte assessed as inhibition of methyl-alpha-D-[14C]glucopyranoside uptake at 75 pmol after 1 hr in presence of methyl-alpha-D-glucopyranoside relative to control
[9] = tested on: Small intestine; assay: Decrease of D-glucose absorption in perfused rat small intestine at 15 mM relative to control; format: functional; parameters: scale not given: the % may be the effect or the level left
[10] = target: T1, Sodium/glucose cotransporter 1 (Homo sapiens); assay: Reversal of inhibition of human SGLT1 expressed in xenopus laevis oocyte by measuring inhibition of methyl-alpha-D-[14C]glucopyranoside uptake after 1 hr assessed concentration required for 50 % protective high affinity in presence of D-glucose relative to control
[11] = substrate: NC(=O)CC[C@H](N)C(=O)N[C@@H](CO)C(=O)N1CCC[C@H]1C(=O)O; assay: Activity of human PepT1 expressed in xenopus laevis oocyte assessed as induction of inward current

Molecule: CC(=O)N[C@@H](CCC(N)=O)C(=O)N[C@@H](CS)C(=O)N1CCC[C@H]1C(=O)O (Ac-Gln-Cys-Pro-OH)
- Activity [1]: inactive
- Activity [2]: Active

Molecule: CC(=O)N[C@@H](CCC(N)=O)C(=O)N[C@@H](CCC(=O)O)C(=O)N1CCC[C@H]1C(=O)O (Ac-Gln-Glu-Pro-OH)
- Activity [1]: Active

Molecule: CC(=O)N1CCC[C@H]1C(=O)N[C@@H](CC(C)C)C(=O)N[C@@H](CCC(N)=O)C(=O)O (Ac-Pro-Leu-Gln-OH)
- Activity [1]: Active

Molecule: CC(=O)N1CCC[C@H]1C(=O)N1CCC[C@H]1C(=O)N[C@@H](CCC(N)=O)C(=O)O (Ac-Pro-Pro-Gln-OH)
- Activity [1]: Active

Molecule: CC(=O)N1CCC[C@H]1C(=O)N[C@@H](CO)C(=O)N[C@@H](CCC(N)=O)C(=O)O (Ac-Pro-Ser-Gln-OH)
- Activity [1]: 44%

Molecule: NC(=O)CC[C@H](N)C(=O)N[C@@H](CS)C(=O)N1CCC[C@H]1C(=O)O (H-Gln-Cys-Pro-OH)
- Activity [1]: Active
- Activity [3]: Active
- Activity [4]: 53 µM
- Activity [5]: 11.9 µM
- Activity [6]: Active
- Activity [7]: Active
- Activity [8]: Active

Molecule: NC(=O)CC[C@H](N)C(=O)N[C@@H](CO)C(=O)N1CCC[C@H]1C(=O)O (H-Gln-Ser-Pro-OH)
- Activity [1]: Active
- Activity [9]: 30%
- Activity [3]: Active
- Activity [4]: 53 µM
- Activity [5]: 11.9 µM
- Activity [10]: 30 µM
- Activity [6]: Active
- Activity [2]: Active
- Activity [7]: Active
- Activity [8]: Active

B1: Solute carrier family 15 member 1 (Homo sapiens), P46059 (protein)
chain: T2 sequence (whole entry)
- Km [11]: 4.2 mM

Now from value to molecule:

- Activity [1]: Active
Molecule: CC(=O)N1CCC[C@H]1C(=O)NCC(=O)N[C@@H](CCC(N)=O)C(=O)O (Ac-Pro-Gly-Gln-OH)

- Activity [1]: Active
Molecule: CC(=O)N1CCC[C@H]1C(=O)N[C@H](C(=O)N[C@@H](CCC(N)=O)C(=O)O)[C@@H](C)O (Ac-Pro-Thr-Gln-OH)

- Activity [2]: Active
Molecule: NCC(=O)N[C@@H](CCC(N)=O)C(=O)O (H-Gly-Gln-OH)

- inhibition [1]: 55%
Molecule: Ac-SVQPCQENQ-OH
